# Earlier results, collected in PMC4654502, “Early Gelatinase Activity Is Not a Determinant of Long-Term Recovery after Traumatic Brain Injury in the Immature Mouse” (PLoS ONE, 2015).
# Tests used:
# [1] = tested on: HI in p7 rat pups; settings: cited from earlier work
# [2] = tested on: HI injury in rats at p21; set-up: method as in PMID 23171520; settings: i.p. 50 mg/kg at 30 min, 6 h and 12 h after HI; cited from earlier work
# [3] = tested on: TBI in adult mice; settings: 25 mg/kg; cited from earlier work
# [4] = tested on: adult models of ischemic stroke; set-up: method as in PMID 22587708; settings: cited from earlier work
# [5] = tested on: fluid-percussion injury in adult rats; settings: cited from earlier work
smiles,measurement,setting,value
CNC(=O)[C@H](Cc1c[nH]c2ccccc12)NC(=O)[C@@H](CC(=O)NO)CC(C)C [GM6001],acute cell death after HI,[1],amelioration of acute cell death
same,ipsilateral brain tissue loss after HI,[1],preservation of ipsilateral brain tissue loss
O=S(=O)(CC1CS1)c1ccc(Oc2ccccc2)cc1 (stereo not drawn) [SB-3CT],neuroprotection after HI injury,[2],failed to render significant neuroprotection
same,pro-MMP-9 after acute treatment,[2],a reduction in pro-MMP-9
same,functional and neuropathological outcomes after TBI in adult mice,[3],effective at improving functional and neuropathological outcomes
same,behavioral and cognitive consequences of ischemic stroke,[4],ameliorate behavioral and cognitive consequences
same,infarct volumes,[4],reduce infarct volumes
same,behavioral and cognitive deficits after TBI,[5],rescued behavioral and cognitive deficits
same,hippocampal neurons after TBI,[5],preserved hippocampal neurons
